According to US20230357139A1, “SMALL MOLECULE INHIBITORS OF BACTERIAL TOXINS” (Artizan Biosciences, Inc., priority 2020, published 2023):
Like-named read-outs stand apart in the source and are kept apart here.

Experiments:
BFT = assay: E-cadherin release assay (BFT-induced E-cadherin release from HT29 cells); assay type: cell-based, B. fragilis
Method: Test compounds were also screened for their ability to inhibit BFT-induced E-cadherin release from HT29 cells.
Different concentrations of test compounds were pre-incubated with rBFT for one hour at 37° C. The rBFT-compound mixture was then added to HT29 cells and incubated at 37° C. for 18 hours. Following incubation, cell supernatants were harvested and E-cadherin was quantified in the supernatants by ELISA (FIG. 2).

collagenase H (ColH) = collagenase H (ColH) (Hathewaya histolytica, UniProt Q46085); assay: biochemical; design: species or system Clostridium histolyticum
Chain of collagenase H (ColH) (Q46085 41-1021 limits assumed): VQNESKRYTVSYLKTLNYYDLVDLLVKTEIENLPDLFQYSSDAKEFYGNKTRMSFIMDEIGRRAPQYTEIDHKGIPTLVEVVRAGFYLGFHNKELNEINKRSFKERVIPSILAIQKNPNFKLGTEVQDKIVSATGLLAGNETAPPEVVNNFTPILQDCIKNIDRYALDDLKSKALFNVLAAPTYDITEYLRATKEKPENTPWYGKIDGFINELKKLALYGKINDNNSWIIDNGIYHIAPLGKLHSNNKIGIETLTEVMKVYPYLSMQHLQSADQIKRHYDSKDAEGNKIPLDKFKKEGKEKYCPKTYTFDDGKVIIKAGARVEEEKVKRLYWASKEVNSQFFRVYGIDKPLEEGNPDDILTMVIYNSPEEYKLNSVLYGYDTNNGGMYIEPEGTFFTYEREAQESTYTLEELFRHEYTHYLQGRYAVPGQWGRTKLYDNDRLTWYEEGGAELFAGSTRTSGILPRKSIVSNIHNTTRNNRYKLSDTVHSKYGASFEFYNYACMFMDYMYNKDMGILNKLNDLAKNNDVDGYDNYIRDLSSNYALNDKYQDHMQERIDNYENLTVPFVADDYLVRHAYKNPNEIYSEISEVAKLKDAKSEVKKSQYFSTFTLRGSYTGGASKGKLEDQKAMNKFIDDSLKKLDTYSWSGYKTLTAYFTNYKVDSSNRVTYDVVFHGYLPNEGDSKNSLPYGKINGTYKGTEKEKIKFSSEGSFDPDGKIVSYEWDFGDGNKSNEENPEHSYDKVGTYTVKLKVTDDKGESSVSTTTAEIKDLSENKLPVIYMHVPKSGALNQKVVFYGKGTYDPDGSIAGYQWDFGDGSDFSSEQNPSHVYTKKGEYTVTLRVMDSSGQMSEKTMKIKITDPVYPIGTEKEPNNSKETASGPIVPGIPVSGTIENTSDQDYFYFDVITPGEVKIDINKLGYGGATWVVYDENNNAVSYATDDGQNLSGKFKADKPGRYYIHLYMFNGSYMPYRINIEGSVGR

Gelatinase E (GelE) = Gelatinase E (GelE) (Enterococcus faecalis (strain ATCC 700802 / V583), UniProt Q833V7); assay: Gelatinase E activity assay (FRET peptide substrate); assay type: biochemical; conditions: for IC50: Table 11
Chain of Gelatinase E (GelE) (Q833V7 193-510 limits assumed): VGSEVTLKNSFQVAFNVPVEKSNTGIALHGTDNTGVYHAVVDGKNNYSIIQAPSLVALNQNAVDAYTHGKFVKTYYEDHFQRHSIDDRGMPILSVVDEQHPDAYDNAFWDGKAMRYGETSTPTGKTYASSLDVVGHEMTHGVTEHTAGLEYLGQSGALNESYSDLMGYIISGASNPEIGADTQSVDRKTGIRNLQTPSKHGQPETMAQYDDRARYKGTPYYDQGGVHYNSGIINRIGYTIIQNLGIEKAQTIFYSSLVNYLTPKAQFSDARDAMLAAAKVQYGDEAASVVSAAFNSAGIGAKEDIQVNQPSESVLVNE
Method: Gelatinase E (Gel E) was purified from bacterial culture supernatant from E. faecalis. E. faecalis was cultured aerobically in Todd Hewitt Broth overnight at 37° C. Nucleic acid was precipitated with 0.9% protamine solution, followed by protein precipitation with ammonium sulfate. Resuspended protein pellet was further subjected to purification using FPLC (phenyl Sepharose column). Fractions with gelatinase activity as determined by casein agar assay were pooled and further concentrated.
Different concentrations of test compound were incubated with purified GelE and FRET-based peptide substrate (390 MMP FRET Substrate 1; Anaspec AS-27077) in assay buffer at room temperature for 30 minutes. The fluorescence signal was determined by a plate reader.

recombinant BFT (rBFT) = assay: NFF-3 cleavage assay; assay type: biochemical, B. fragilis
Method: A NFF-3 cleavage assay was used to test activity of recombinant BFT, before or after addition of various inhibitors. The NFF-3 cleavage assay was previously described by Goulas et al., PNAS, 2011, 108(5) 1856-1861, which is incorporated by reference herein in its entirety.
Initially, recombinant BFT (rBFT) (0.25, 0.5, 1, 2, 4, 8, or 16 μg/mL) was incubated at 37° C. with the fluorogenic substrate NFF-3 (Cayman Chemical) at a concentration of 2.5 μM, 5 μM, or 10 μM. After 18 hours, fluorescence was measured in a microplate fluorimeter.
Next, rBFT was pre-incubated with one or more test compounds at different concentrations for 30 minutes at 37° C. The rBFT-compound mixture was then added to NFF-3 and incubated for 24 hours at 37° C. Fluorescence was then measured in a microplate fluorimeter.

ETBF = assay: ETBF-mediated disease model in mono-colonized germ-free mice; assay type: in vivo; conditions: for lipocalin2 levels: 15-50 mg/kg p.o., QD
Method: Test compounds were also screened in vivo. Germ-free (GF) mice were mono-colonized with ETBF on day 0. […] Markers of injury and inflammation (e.g., cecal weight and fecal lipocalin 2) were analyzed on day 4 (FIG. 6A). Sample size was 5-6 mice per group.

[1] = 18 hours, E-cadherin in supernatant by ELISA, read-out: HT29 Cell IC50
[2] = rBFT pre-incubated with compound 30 minutes at 37° C., then NFF-3 for 24 hours, read-out: NFF3 IC50
[3] = ETBF-colonized mice, 50 mg/kg oral BID days 1-3, analyzed day 4

SMILES | IC50 (BFT; [1]) | IC50 (Gelatinase E (GelE)) | IC50 (recombinant BFT (rBFT); [2]) | other results
CC(C)C[C@H](C(=O)NO)N(Cc1ccncc1)S(=O)(=O)c1ccc(O)cc1 [Example 28] | 0.198 µM | – | – | –
COCCOc1ccc(S(=O)(=O)N(CC(=O)NO)CC(C)C)cc1 [G] | – | 443 nM | – | IC50 (collagenase H (ColH); read-out: ColH IC50): > 100 µM
CSc1ccc(S(=O)(=O)N(CC(=O)NO)CC(C)C)cc1 [M] | – | 257 nM | – | IC50 (collagenase H (ColH); read-out: ColH IC50): > 100 µM
COc1ccc(S(=O)(=O)N(Cc2cccnc2)[C@H](Cc2ccc(C(F)(F)F)cc2)C(=O)NO)cc1 [Example 21] | > 16 µM | – | 2750 nM | –
CCC[C@H](C(=O)NO)N(Cc1cccnc1)S(=O)(=O)c1ccc(O)cc1 [Example 42] | – | – | 90 nM | IC50 (collagenase H (ColH)): 8.78 µM; lipocalin2 levels (ETBF): significantly reduce
CC(C)[C@H](C(=O)NO)N(Cc1cccnc1)S(=O)(=O)c1ccc(O)cc1 [OH-CGS-27023A, 2(R)-[4-hydroxy-N-(3-pyridylmethyl)phenylsulfonamido]-3-methylbutyrohydroxamic acid, reference compound] | – | – | – | IC50 (recombinant BFT (rBFT); Table 9, FIG. 5B, read-out: IC50, inhibition of BFT-induced NFF-3 release): 366 nM; IC50 (BFT; FIG. 4, read-out: IC50, inhibition of BFT (E-cadherin release)): 1.99 µM
CC[C@H](C(=O)NO)N(CCc1cccnc1)S(=O)(=O)c1ccc(O)cc1 [Example 60, (R)—N-hydroxy-2-((4-hydroxy-N-(2-(pyridin-3-yl)ethyl)phenyl)sulfonamido)butanamide] | – | – | 18.8 nM | IC50 (collagenase H (ColH)): 3.82 µM; lipocalin2 levels (ETBF): significantly reduce
CSCC[C@H](C(=O)NO)N(Cc1cccnc1)S(=O)(=O)c1ccc(O)cc1 [Example 3] | 3.84 µM | – | 240 nM | –
CNC(=O)COc1ccc(S(=O)(=O)N(CC(=O)NO)CC(C)C)cc1 [K] | – | 512 nM | – | IC50 (collagenase H (ColH)): > 100 µM
CC(C)[C@H](C(=O)NO)N(Cc1cccnc1)S(=O)(=O)c1ccc(O)cc1 [OH-CGS-23270A, 2(R)-[4-Hydroxy-N-(3-pyridylmethyl)phenylsulfonamido]-3-methylbutyrohydroxamic acid, reference compound] | – | – | – | cecal weight compared to vehicle control (ETBF; [3]): significantly increased; fecal lipocalin2 compared to vehicle control (ETBF; [3]): significantly decreased
O=C(NO)[C@@H](Cc1c[nH]c2ccccc12)N(Cc1cccnc1)S(=O)(=O)c1ccc(O)cc1 [Example 6] | 1.62 µM | – | 150 nM | –
COc1ccc(S(=O)(=O)N(CC(=O)NO)CC(F)F)cc1 [P] | – | 9090 nM | – | IC50 (collagenase H (ColH); read-out: ColH IC50): > 100 µM
O=C(NO)C(c1ccc(F)cc1)N(Cc1cccnc1)S(=O)(=O)c1ccc(O)cc1 (stereo not drawn) [Example 23] | > 50 µM | – | 300 nM | –
O=C(CN(Cc1cccnc1)S(=O)(=O)c1ccc(O)cc1)NO [Example 24] | 19.1 µM | – | 1100 nM | –
CCCOc1ccc(S(=O)(=O)N(CC(=O)NO)CC(C)C)cc1 [D] | – | 489 nM | – | IC50 (collagenase H (ColH); read-out: ColH IC50): > 100 µM
COc1ccc(S(=O)(=O)N(CC(=O)NO)CC(C)C)cn1 [L] | – | 336 nM | – | IC50 (collagenase H (ColH); read-out: ColH IC50): > 100 µM
CC(C)CN(CC(=O)NO)S(=O)(=O)c1ccc(OCC(=O)NCc2cccc(F)c2)cc1 [AN] | – | 158 nM | – | –
CC(C)C[C@H](C(=O)NO)N(Cc1ccc2[nH]ccc2c1)S(=O)(=O)c1ccc(O)cc1 [Example 33] | 1.74 µM | – | 140 nM | IC50 (collagenase H (ColH)): 0.384 µM
CC[C@H](C(=O)NO)N(Cc1cccnc1)S(=O)(=O)c1ccc(O)cc1 [Example 25] | 0.78 µM | – | 90 nM | –
Cc1ccccc1CNC(=O)COc1ccc(S(=O)(=O)N(CC(=O)NO)CC(C)C)cc1 [AL] | – | 218 nM | – | –
C=CCOc1ccc(S(=O)(=O)N(CC(=O)NO)CC(C)C)cc1 [R] | – | 2420 nM | – | –
COc1ccc(S(=O)(=O)N(Cc2cccnc2)[C@H](Cc2ccccc2)C(=O)NO)cc1 [Example 19] | 8.26 µM | – | 1240 nM | –
CC(C)C[C@H](C(=O)NO)N(Cc1cnco1)S(=O)(=O)c1ccc(O)cc1 [Example 32] | 5.17 µM | – | 510 nM | –

SMILES | IC50 (BFT; [1]) | IC50 (Gelatinase E (GelE)) | IC50 (recombinant BFT (rBFT); [2]) | other results
CC(C)C[C@H](C(=O)NO)N(Cc1cccnc1)S(=O)(=O)c1cccc(O)c1 [Example 27] | > 50 µM | – | 5950 nM | –
C[C@H](O)[C@H](C(=O)NO)N(Cc1cccnc1)S(=O)(=O)c1ccc(O)cc1 [Example 2] | 6.72 µM | – | > 1000 nM | –
CC(C)CN(CC(=O)NO)S(=O)(=O)c1ccc(OC(C)C)cc1 [E] | – | 1210 nM | – | IC50 (collagenase H (ColH); read-out: ColH IC50): > 100 µM
CC(C)CN(CC(=O)NO)S(=O)(=O)c1ccc(OCC(=O)NCc2cccc(C(F)(F)F)c2)cc1 [AF] | – | 113 nM | – | –
COc1ccc(S(=O)(=O)N(CC(=O)O)Cc2cccnc2)cc1 [I] | – | > 100000 nM | – | IC50 (collagenase H (ColH); read-out: ColH IC50): > 100 µM
O=C(NO)[C@@H](Cc1ccc(O)cc1)N(Cc1cccnc1)S(=O)(=O)c1ccc(O)cc1 [Example 4] | 6.33 µM | – | 2040 nM | –
CC(C)C[C@H](C(=O)NO)N(Cc1cscn1)S(=O)(=O)c1ccc(O)cc1 [Example 30] | 0.97 µM | – | – | –
CC(C)CN(CC(=O)NO)S(=O)(=O)c1ccc(OCC(=O)NCc2cc(F)cc(F)c2)cc1 [AO] | – | > 10000 nM | – | –
CCOc1ccc(S(=O)(=O)N(CC(=O)NO)CC(C)C)cc1 [C] | – | 372 nM | – | IC50 (collagenase H (ColH); read-out: ColH IC50): > 100 µM
O=C(NO)C(c1ccccc1)N(Cc1cccnc1)S(=O)(=O)c1ccc(O)cc1 (stereo not drawn) [Example 22] | 17.3 µM | – | 660 nM | –
CCC[C@H](C(=O)NO)N(Cc1ccc2[nH]ccc2c1)S(=O)(=O)c1ccc(O)cc1 [Example 63] | – | – | – | IC50 (collagenase H (ColH)): 8.89 µM
COc1cccc(S(=O)(=O)N(Cc2cccnc2)[C@H](CC(C)C)C(=O)NO)c1 [Example 31] | > 50 µM | – | 20100 nM | –
O=C(NO)[C@@H](Cc1ccc(C(F)(F)F)cc1)N(Cc1cccnc1)S(=O)(=O)c1ccc(O)cc1 [Example 20] | 7.32 µM | – | 860 nM | –
O=C(NO)[C@@H](Cc1ccccc1)N(Cc1cccnc1)S(=O)(=O)c1ccc(O)cc1 [Example 5] | 4.91 µM | – | 240 nM | –
COc1ccc(S(=O)(=O)N(CC(=O)NO)CC(C)C)cc1 [A] | – | 202 nM | – | ColH inhibition (collagenase H (ColH)): high levels of ColH inhibition; IC50 (collagenase H (ColH); read-out: ColH IC50): 0.612 µM; GelE inhibition (Gelatinase E (GelE); FIG. 7): high levels of GelE inhibition
CC(C)CN(CC(=O)NO)S(=O)(=O)c1ccc(OCC(=O)NCc2ccc(F)cc2)cc1 [AJ] | – | 313 nM | – | –
COCCN(CC(=O)NO)S(=O)(=O)c1ccc(OC)cc1 [Y] | – | 6760 nM | – | –
CSc1cccc(CNC(=O)COc2ccc(S(=O)(=O)N(CC(=O)NO)CC(C)C)cc2)c1 [AQ] | – | 119 nM | – | –
CC(C)CN(CC(=O)NO)S(=O)(=O)c1ccc(OCc2ccc(F)cc2)cc1 [F] | – | 649 nM | – | IC50 (collagenase H (ColH); read-out: ColH IC50): > 100 µM
CC(C)CN(CC(=O)NO)S(=O)(=O)c1ccc(OCC(=O)NCc2cccc(Cl)c2)cc1 [AG, N-(3-chlorobenzyl)-2-(4-(N-(2-(hydroxyamino)-2-oxoethyl)-N-isobutylsulfamoyl)phenoxy)acetamide] | – | 103 nM | – | –
CC(C)C[C@H](C(=O)NO)N(Cc1cccnc1)S(=O)(=O)c1ccc(O)cc1 [Example 1, (R)—N-hydroxy-2-((4-hydroxy-N-(pyridin-3-ylmethyl)phenyl)sulfonamido)-4-methylpentanamide] | 1.52 µM | – | < 150 nM | –
CC(C)C[C@H](C(=O)NO)N(Cc1ccc(F)cc1)S(=O)(=O)c1ccc(O)cc1 [Example 26] | 1.28 µM | – | – | IC50 (collagenase H (ColH)): 19.3 µM
CC(C)CN(CC(=O)NO)S(=O)(=O)c1ccc(Oc2ccccc2)cc1 [AA] | – | 1690 nM | – | –
